From PubChem BioAssay AID256 (DTP/NCI, 2004)
Values joined by “and” are separate entries in the source; they are usually repeats but may differ in a detail not shown here. Identical values can stand only once. Inconclusive results and toxic doses are left out. How the source made its calls: active means survival T/C of 150% or more; inactive means T/C below 125% in these data.

Tested on: CD2F1 mice, L1210 leukemia ip, survival T/C
Assay: NCI In Vivo Anticancer Drug Screen. Data for tumor model L1210 Leukemia (intraperitoneal) in CD2F1 (CDF1) mice
Conditions: higher = longer survival
In short: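 Compound-dosed mice with transplantable tumor versus matched vehicle controls; endpoint ratio T/C reported.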

[1] = endpoint: mean survival time, dose: 100.0 mg/kg/injection, schedule: Q04DX003 (ip), vehicle: saline
[2] = endpoint: mean survival time, dose: 200.0 mg/kg/injection, schedule: Q04DX003 (ip), vehicle: saline
[3] = endpoint: mean survival time, dose: 400.0 mg/kg/injection, schedule: Q04DX003 (ip), vehicle: saline
[4] = endpoint: mean survival time, dose: 25.0 mg/kg/injection, schedule: Q01DX009 (ip), vehicle: saline with Tween-80
[5] = endpoint: mean survival time, dose: 100.0 mg/kg/injection, schedule: Q04DX003 (ip), vehicle: saline with Tween-80
[6] = endpoint: mean survival time, dose: 200.0 mg/kg/injection, schedule: Q04DX003 (ip), vehicle: saline with Tween-80
[7] = endpoint: mean survival time, dose: 400.0 mg/kg/injection, schedule: Q04DX003 (ip), vehicle: saline with Tween-80
[8] = endpoint: mean survival time, dose: 100.0 mg/kg/injection, schedule: Q01DX001 (ip), vehicle: saline with Tween-80
[9] = endpoint: mean survival time, dose: 200.0 mg/kg/injection, schedule: Q01DX001 (ip), vehicle: saline with Tween-80

Measured: T/C

Cc1ccoc1
inactive: endpoint: median survival time, dose: 8.3 mg/kg/injection, schedule: Q03HX015 (ip), vehicle: saline with Tween-80 101 % of control | endpoint: median survival time, dose: 16.6 mg/kg/injection, schedule: Q03HX015 (ip), vehicle: saline with Tween-80 103 % of control | endpoint: median survival time, dose: 33.3 mg/kg/injection, schedule: Q03HX015 (ip), vehicle: saline with Tween-80 117 % of control | endpoint: median survival time, dose: 66.6 mg/kg/injection, schedule: Q03HX015 (ip), vehicle: saline with Tween-80 124 % of control

CCC/C=C\CC(C)C(C)CC (centres undefined)
inactive: [1] 101 % of control | [2] 108 % of control | [3] 104 % of control

CC(=O)[C@]1(O)Cc2c(O)c3c(c(O)c2[C@@H](OC2CC(N)C(O)C(C)O2)C1)C(=O)c1c(O)cccc1C3=O (some centres undefined)
inactive: endpoint: mean survival time, dose: 0.05 mg/kg/injection, schedule: Q01DX009 (ip), vehicle: saline 118 % of control | endpoint: mean survival time, dose: 0.08 mg/kg/injection, schedule: Q01DX009 (ip), vehicle: saline 120 % of control | endpoint: mean survival time, dose: 0.08 mg/kg/injection, schedule: Q04DX003 (ip), vehicle: saline 107 % of control | endpoint: mean survival time, dose: 0.14 mg/kg/injection, schedule: Q04DX003 (ip), vehicle: saline 109 % of control | endpoint: mean survival time, dose: 0.23 mg/kg/injection, schedule: Q04DX003 (ip), vehicle: saline 123 % of control | endpoint: mean survival time, dose: 0.39 mg/kg/injection, schedule: Q01DX009 (ip), vehicle: saline 113 % of control | endpoint: mean survival time, dose: 0.65 mg/kg/injection, schedule: Q01DX009 (ip), vehicle: saline 88 % of control

CC1CCCC(C)N1CC(O)c1ccccc1 (centres undefined)
inactive: endpoint: mean survival time, dose: 6.25 mg/kg/injection, schedule: Q01DX009 (ip), vehicle: saline with Tween-80 98 % of control | endpoint: mean survival time, dose: 12.5 mg/kg/injection, schedule: Q01DX009 (ip), vehicle: saline with Tween-80 100 % of control | [4] 102 % of control

c1ccc([CH2][Pb]([c]2ccccc2)([c]2ccccc2)[c]2ccccc2)cc1
inactive: [5] 100 % of control | [6] 97 % of control | [7] 91 % of control

CCCC(=O)c1ccc(C)cc1
inactive: [5] 97 % of control | [7] 88 % of control

O=C(/C(=N\O)c1ccc(Cl)cc1)c1ccc(Cl)cc1
inactive: [5] 95 % of control | [6] 87 % of control

COC(=O)NCCNC(=O)OC
inactive: endpoint: mean survival time, dose: 100.0 mg/kg/injection, schedule: Q01DX001 (ip), vehicle: saline 98 % of control | endpoint: mean survival time, dose: 200.0 mg/kg/injection, schedule: Q01DX001 (ip), vehicle: saline 98 % of control | endpoint: mean survival time, dose: 400.0 mg/kg/injection, schedule: Q01DX001 (ip), vehicle: saline 101 % of control

COc1ccc(OC)c(NC(=O)Oc2ccc(-c3ccccc3)cc2Cl)c1
inactive: endpoint: mean survival time, dose: 100.0 mg/kg/injection, schedule: Q01DX009 (ip), vehicle: saline with Tween-80 105 % of control | endpoint: mean survival time, dose: 200.0 mg/kg/injection, schedule: Q01DX009 (ip), vehicle: saline with Tween-80 102 % of control | endpoint: mean survival time, dose: 400.0 mg/kg/injection, schedule: Q01DX009 (ip), vehicle: saline with Tween-80 106 % of control

CC(C)=CCC(OC(=O)C=C(C)C)c1cc(O)c2c(O)ccc(O)c2c1O.[Pt] (centres undefined)
inactive: endpoint: mean survival time, dose: 1.56 mg/kg/injection, schedule: Q04DX003 (ip), vehicle: distilled water + Tween-80 104 % of control | endpoint: mean survival time, dose: 3.12 mg/kg/injection, schedule: Q04DX003 (ip), vehicle: distilled water + Tween-80 104 % of control | endpoint: mean survival time, dose: 6.25 mg/kg/injection, schedule: Q04DX003 (ip), vehicle: distilled water + Tween-80 101 % of control | endpoint: mean survival time, dose: 12.5 mg/kg/injection, schedule: Q04DX003 (ip), vehicle: distilled water + Tween-80 101 % of control | endpoint: mean survival time, dose: 25.0 mg/kg/injection, schedule: Q04DX003 (ip), vehicle: distilled water + Tween-80 95 % of control | endpoint: mean survival time, dose: 50.0 mg/kg/injection, schedule: Q04DX003 (ip), vehicle: distilled water + Tween-80 89 % of control | endpoint: mean survival time, dose: 100.0 mg/kg/injection, schedule: Q04DX003 (ip), vehicle: distilled water + Tween-80 92 % of control

O=C(O)c1nnc(C(=O)O)nn1
inactive: endpoint: mean survival time, dose: 12.5 mg/kg/injection, schedule: Q01DX009 (ip), vehicle: water 100 % of control | endpoint: mean survival time, dose: 25.0 mg/kg/injection, schedule: Q01DX009 (ip), vehicle: water 100 % of control | endpoint: mean survival time, dose: 50.0 mg/kg/injection, schedule: Q01DX009 (ip), vehicle: water 95 % of control | endpoint: mean survival time, dose: 100.0 mg/kg/injection, schedule: Q01DX009 (ip), vehicle: water 94 % of control

CN(C)C1C(CO)C(CO)C1(C)C (centres undefined)
inactive: endpoint: mean survival time, dose: 50.0 mg/kg/injection, schedule: Q01DX001 (ip), vehicle: saline with Tween-80 98 % of control | [8] 97 % of control | [9] 98 % of control | endpoint: mean survival time, dose: 400.0 mg/kg/injection, schedule: Q01DX001 (ip), vehicle: saline with Tween-80 97 % of control

CO[C@@]12[C@@H]3N[C@@H]3CN1C1=C(C(=O)C(NCCN(C)C)=C(C)C1=O)[C@@H]2COC(N)=O
inactive: endpoint: mean survival time, dose: 1.5 mg/kg/injection, schedule: Q01DX001 (ip), vehicle: water 106 % of control | endpoint: mean survival time, dose: 3.0 mg/kg/injection, schedule: Q01DX001 (ip), vehicle: distilled water + Tween-80 116 % of control | endpoint: mean survival time, dose: 3.0 mg/kg/injection, schedule: Q01DX001 (ip), vehicle: water 106 % of control | endpoint: mean survival time, dose: 6.0 mg/kg/injection, schedule: Q01DX001 (ip), vehicle: water 116 % of control | endpoint: mean survival time, dose: 24.0 mg/kg/injection, schedule: Q01DX001 (ip), vehicle: distilled water + Tween-80 96 % of control | endpoint: mean survival time, dose: 24.0 mg/kg/injection, schedule: Q01DX001 (ip), vehicle: water 93 % of control

c1ccc2c(CC[n+]3cccc(C4OCCO4)c3)c[nH]c2c1
inactive: endpoint: mean survival time, dose: 12.5 mg/kg/injection, schedule: Q01DX009 (ip), vehicle: saline 100 % of control | endpoint: mean survival time, dose: 12.5 mg/kg/injection, schedule: Q04DX003 (ip), vehicle: saline 92 % of control | endpoint: mean survival time, dose: 25.0 mg/kg/injection, schedule: Q01DX009 (ip), vehicle: saline 105 % of control | endpoint: mean survival time, dose: 25.0 mg/kg/injection, schedule: Q04DX003 (ip), vehicle: saline 96 % of control | endpoint: mean survival time, dose: 50.0 mg/kg/injection, schedule: Q01DX009 (ip), vehicle: saline 100 % of control | endpoint: mean survival time, dose: 50.0 mg/kg/injection, schedule: Q04DX003 (ip), vehicle: saline 89 % of control

CCCCCOC(=S)S
inactive: endpoint: mean survival time, dose: 9.37 mg/kg/injection, schedule: Q04DX003 (ip), vehicle: Klucel (hydroxypropylcellulose) (HPC) 86 % of control | endpoint: mean survival time, dose: 37.5 mg/kg/injection, schedule: Q04DX003 (ip), vehicle: Klucel (hydroxypropylcellulose) (HPC) 86 % of control

COC1=CCC2C(=O)C=CC(=O)C2C1 (centres undefined)
inactive: endpoint: mean survival time, dose: 12.5 mg/kg/injection, schedule: Q01DX005 (ip), vehicle: Klucel (hydroxypropylcellulose) (HPC) 95 % of control | endpoint: mean survival time, dose: 25.0 mg/kg/injection, schedule: Q01DX005 (ip), vehicle: Klucel (hydroxypropylcellulose) (HPC) 95 % of control | endpoint: mean survival time, dose: 50.0 mg/kg/injection, schedule: Q01DX005 (ip), vehicle: Klucel (hydroxypropylcellulose) (HPC) 93 % of control | endpoint: mean survival time, dose: 100.0 mg/kg/injection, schedule: Q01DX005 (ip), vehicle: Klucel (hydroxypropylcellulose) (HPC) 91 % of control | endpoint: mean survival time, dose: 200.0 mg/kg/injection, schedule: Q01DX005 (ip), vehicle: Klucel (hydroxypropylcellulose) (HPC) 90 % of control

CCCC1=NC(C)(C)CO1
inactive: [1] 92 % of control | [2] 94 % of control | [3] 105 % of control

O=C(O)c1c(F)c(F)c(-c2c(F)c(F)c(C(=O)O)c(C(=O)O)c2F)c(F)c1C(=O)O
inactive: [8] 95 % of control | [9] 96 % of control

OCC1OC(n2ccc3c2ncn2ncnc32)C(O)C1O (centres undefined)
inactive: endpoint: mean survival time, dose: 6.25 mg/kg/injection, schedule: Q01DX005 (ip), vehicle: water 114 % of control | endpoint: mean survival time, dose: 12.5 mg/kg/injection, schedule: Q01DX005 (ip), vehicle: water 114 % of control | endpoint: mean survival time, dose: 25.0 mg/kg/injection, schedule: Q01DX005 (ip), vehicle: water 117 % of control | endpoint: mean survival time, dose: 50.0 mg/kg/injection, schedule: Q01DX005 (ip), vehicle: water 88 % of control and 106 % of control

CC1=C(Br)C(=O)C(Br)=C(Br)C1=O
inactive: [4] 96 % of control
